Source: ChEMBL document CHEMBL3885861, “Open TG-GATES”

Species on record: Rattus norvegicus
Assay: Open TG-GATES - Regimen: Daily Repeat
Format: toxicity, organism-based, Sprague-Dawley
Design: regimen Daily Repeat, gender Male, age 6 weeks
Conditions: in vivo, po, 30 mg/kg, route gavage, dose level Middle; for APTT / Bas / Eos / Fbg / Hb / Ht / Lym / MCH / MCHC / MCV / Mono / Neu / PT / Plat / RBC / Ret / WBC: tissue Blood; for KIDNEY_L / KIDNEY_R / KIDNEY_TOTAL: tissue Kidney; for LIVER: tissue Liver; for A/G / ALP / ALT / AST / BUN / CRE / Ca / Cl / DBIL / GLC / IP / K / LDH / Na / PL / RALB / TBIL / TC / TG / TP / gamma-GTP: tissue Plasma

CCCc1cc(=O)[nH]c(=S)[nH]1 [PROPYLTHIOURACIL]
TERMINAL_BW (72 h, time 3 day): 205.6 g
APTT (72 h, time 3 day): 15.9 s
Bas (72 h, time 3 day): 0%
Eos (72 h, time 3 day): 0.4%
Fbg (72 h, time 3 day): 242.4 mg/dL
Hb (72 h, time 3 day): 13.6 g/dL
Ht (72 h, time 3 day): 40.9%
Lym (72 h, time 3 day): 73%
MCH (72 h, time 3 day): 21.9 pg
MCHC (72 h, time 3 day): 33.3%
MCV (72 h, time 3 day): 65.7 fL
Mono (72 h, time 3 day): 7.4%
Neu (72 h, time 3 day): 19.2%
PT (72 h, time 3 day): 12.2 s
Plat (72 h, time 3 day): 114 x10_4/uL
RBC (72 h, time 3 day): 623 x10_4/ul
Ret (72 h, time 3 day): 6.7%
WBC (72 h, time 3 day): 122.6 x10_2/uL
KIDNEY_L (72 h, time 3 day): 0.9 g
KIDNEY_R (72 h, time 3 day): 0.9 g
KIDNEY_TOTAL (72 h, time 3 day): 1.8 g
LIVER (72 h, time 3 day): 11.4 g
A/G (72 h, time 3 day): 1.8
ALP (72 h, time 3 day): 907.2 IU/L
ALT (72 h, time 3 day): 36 IU/L
AST (72 h, time 3 day): 64 IU/L
BUN (72 h, time 3 day): 18.2 mg/dL
CRE (72 h, time 3 day): 0.5 mg/dL
Ca (72 h, time 3 day): 11.3 mg/dL
Cl (72 h, time 3 day): 106 meq/L
DBIL (72 h, time 3 day): 0.024 mg/dL
GLC (72 h, time 3 day): 192 mg/dL
IP (72 h, time 3 day): 7.6 mg/dL
K (72 h, time 3 day): 4.6 meq/L
LDH (72 h, time 3 day): 150.8 IU/L
Na (72 h, time 3 day): 138.4 meq/L
PL (72 h, time 3 day): 183 mg/dL
RALB (72 h, time 3 day): 3.9 g/dL
TBIL (72 h, time 3 day): 0.3 mg/dL
TC (72 h, time 3 day): 106.4 mg/dL
TG (72 h, time 3 day): 97 mg/dL
TP (72 h, time 3 day): 6 g/dL
gamma-GTP (72 h, time 3 day): 1.2 IU/L
TERMINAL_BW ([…], time 7 day): 228.6 g
TERMINAL_BW ([…], time 14 day): 248.6 g
TERMINAL_BW ([…], time 28 day): 242.7 g
APTT ([…], time 7 day): 16.2 s
Bas ([…], time 7 day): 0%
Eos ([…], time 7 day): 0.2%
Fbg ([…], time 7 day): 264 mg/dL
Hb ([…], time 7 day): 13.7 g/dL
Ht ([…], time 7 day): 40.3%
Lym ([…], time 7 day): 82.4%
MCH ([…], time 7 day): 21.5 pg
MCHC ([…], time 7 day): 34.1%
MCV ([…], time 7 day): 63.2 fL
Mono ([…], time 7 day): 8.4%
Neu ([…], time 7 day): 9%
PT ([…], time 7 day): 12.9 s
Plat ([…], time 7 day): 122.5 x10_4/uL
RBC ([…], time 7 day): 638 x10_4/ul
Ret ([…], time 7 day): 3.7%
WBC ([…], time 7 day): 123.8 x10_2/uL
APTT ([…], time 14 day): 16.6 s
Bas ([…], time 14 day): 0%
Eos ([…], time 14 day): 0.2%
Fbg ([…], time 14 day): 204.2 mg/dL
Hb ([…], time 14 day): 14.8 g/dL
Ht ([…], time 14 day): 43.8%
Lym ([…], time 14 day): 86.2%
MCH ([…], time 14 day): 21 pg
MCHC ([…], time 14 day): 33.7%
MCV ([…], time 14 day): 62.2 fL
Mono ([…], time 14 day): 3.6%
Neu ([…], time 14 day): 10%
PT ([…], time 14 day): 13.8 s
Plat ([…], time 14 day): 89 x10_4/uL
RBC ([…], time 14 day): 705.4 x10_4/ul
Ret ([…], time 14 day): 1.5%
WBC ([…], time 14 day): 134 x10_2/uL
APTT ([…], time 28 day): 15.1 s
Bas ([…], time 28 day): 0%
Eos ([…], time 28 day): 1%
Fbg ([…], time 28 day): 171 mg/dL
Hb ([…], time 28 day): 15.8 g/dL
Ht ([…], time 28 day): 46.9%
Lym ([…], time 28 day): 85.2%
MCH ([…], time 28 day): 19.5 pg
MCHC ([…], time 28 day): 33.7%
MCV ([…], time 28 day): 57.7 fL
Mono ([…], time 28 day): 3%
Neu ([…], time 28 day): 10.8%
PT ([…], time 28 day): 14.2 s
Plat ([…], time 28 day): 82.1 x10_4/uL
RBC ([…], time 28 day): 813.2 x10_4/ul
Ret ([…], time 28 day): 0.6%
WBC ([…], time 28 day): 63 x10_2/uL
KIDNEY_L ([…], time 7 day): 0.9 g
KIDNEY_R ([…], time 7 day): 0.9 g
KIDNEY_TOTAL ([…], time 7 day): 1.8 g
KIDNEY_L ([…], time 14 day): 0.9 g
KIDNEY_R ([…], time 14 day): 0.9 g
KIDNEY_TOTAL ([…], time 14 day): 1.9 g
KIDNEY_L ([…], time 28 day): 0.8 g
KIDNEY_R ([…], time 28 day): 0.8 g
KIDNEY_TOTAL ([…], time 28 day): 1.6 g
LIVER ([…], time 7 day): 12.4 g
LIVER ([…], time 14 day): 11.5 g
LIVER ([…], time 28 day): 9.6 g
A/G ([…], time 7 day): 1.7
ALP ([…], time 7 day): 735.2 IU/L
ALT ([…], time 7 day): 31.6 IU/L
AST ([…], time 7 day): 54.8 IU/L
BUN ([…], time 7 day): 21.8 mg/dL
CRE ([…], time 7 day): 0.5 mg/dL
Ca ([…], time 7 day): 11.6 mg/dL
Cl ([…], time 7 day): 106 meq/L
DBIL ([…], time 7 day): 0.018 mg/dL
GLC ([…], time 7 day): 173.6 mg/dL
IP ([…], time 7 day): 6.8 mg/dL
K ([…], time 7 day): 4.6 meq/L
LDH ([…], time 7 day): 85.8 IU/L
Na ([…], time 7 day): 140.6 meq/L
PL ([…], time 7 day): 170.6 mg/dL
RALB ([…], time 7 day): 4.2 g/dL
TBIL ([…], time 7 day): 0.3 mg/dL
TC ([…], time 7 day): 111.2 mg/dL
TG ([…], time 7 day): 80.2 mg/dL
TP ([…], time 7 day): 6.7 g/dL
gamma-GTP ([…], time 7 day): 2.2 IU/L
A/G ([…], time 14 day): 1.7
ALP ([…], time 14 day): 562.2 IU/L
ALT ([…], time 14 day): 27.6 IU/L
AST ([…], time 14 day): 51.2 IU/L
BUN ([…], time 14 day): 24.2 mg/dL
CRE ([…], time 14 day): 0.7 mg/dL
Ca ([…], time 14 day): 11.5 mg/dL
Cl ([…], time 14 day): 106.8 meq/L
DBIL ([…], time 14 day): 0.004 mg/dL
GLC ([…], time 14 day): 180.6 mg/dL
IP ([…], time 14 day): 6.4 mg/dL
K ([…], time 14 day): 4 meq/L
LDH ([…], time 14 day): 70.2 IU/L
Na ([…], time 14 day): 141.4 meq/L
PL ([…], time 14 day): 157.4 mg/dL
RALB ([…], time 14 day): 4.3 g/dL
TBIL ([…], time 14 day): 0.2 mg/dL
TC ([…], time 14 day): 103 mg/dL
TG ([…], time 14 day): 43.4 mg/dL
TP ([…], time 14 day): 6.9 g/dL
gamma-GTP ([…], time 14 day): 2.2 IU/L
A/G ([…], time 28 day): 2
ALP ([…], time 28 day): 475.4 IU/L
ALT ([…], time 28 day): 34 IU/L
AST ([…], time 28 day): 58.4 IU/L
BUN ([…], time 28 day): 27.2 mg/dL
CRE ([…], time 28 day): 0.7 mg/dL
Ca ([…], time 28 day): 10.8 mg/dL
Cl ([…], time 28 day): 108.8 meq/L
DBIL ([…], time 28 day): 0.062 mg/dL
GLC ([…], time 28 day): 168.6 mg/dL
IP ([…], time 28 day): 5.4 mg/dL
K ([…], time 28 day): 4.3 meq/L
LDH ([…], time 28 day): 71.4 IU/L
Na ([…], time 28 day): 142.2 meq/L
PL ([…], time 28 day): 165.8 mg/dL
RALB ([…], time 28 day): 4.5 g/dL
TBIL ([…], time 28 day): 0.2 mg/dL
TC ([…], time 28 day): 105.4 mg/dL
TG ([…], time 28 day): 46.8 mg/dL
TP ([…], time 28 day): 6.8 g/dL
gamma-GTP ([…], time 28 day): 2.4 IU/L
